The text below walks through data of patent publication US8685976B2, “Cell adhesion promoting agent and method of promoting cell adhesion” (Kyoto University, priority 2008, dated 2014).

Structures are written as SMILES.

Assay [1] deals with Jurkat cells. Nature of the assay: Cell detachment assay. The format is cell-based, human. To be noted: 24 hour after washing (removal of adhesamine). The method, then:
FIG. 2 is a graph illustrating a reversible activity of adhesamine (1). The attached cells were counted at the indicated time points after removal of adhesamine (1). In order to calculate adhesion rates, the number of cells before washing was assigned a value of 100%. Each assay was conducted in triplicate, and the means and the standard deviations were calculated for a minimum of three independent experiments.
1 μL DMSO solution of adhesamine (1) (6 mM) was dispensed to each well on a 96-well plate. Jurkat cells were suspended in the growth medium, and 100 μL of cell suspension was added to each well at a density of 1×10^6 cells/mL. After 5-hour incubation at 37° C., the medium was aspirated, and the plates were washed twice with PBS. 100 μL of fresh medium was added to each well. After further 4, 8, 14 and 24-hour incubation at 37° C., non-adhered cells were removed by washing with PBS twice, and the attached cells were counted with a Neubauer counting chamber. To calculate adhesion rates, the cell numbers before washing were assigned a value of 100%. Each assay was conducted in triplicate, and the means and standard derivations were calculated for a minimum of three independent experiments.

In assay [2] the test system is HepG2 cells. Nature of the assay: Visualization of actin cytoskeleton with rhodamine-conjugated phalloidin, HepG2. The settings on record: HepG2, 6 μM. The format is cell-based. Here is the method:
(§1) In (A) and (B), the cell growth was determined at 24, 48, and 72 hours after the addition of adhesamine (1) (6 μM). The cell growth in the presence of 1% (v/v) DMSO was assigned a value of 100%. The data shown are means±SD for a minimum of three experiments. (C) to (F) show the rearrangement of actin filaments in HepG2 and Jurkat cells in the presence of adhesamine (6 μM). Brightfield images (C and D) and confocal images (E and F) are shown. HepG2 (C and E) or Jurkat (D and F) cells were plated for 5 hours or 3 hours, respectively, and actin cytoskeletal was visualized using rhodamine-labeled phalloidin.
(§2) Jurkat or HepG2 cells were plated onto glass coverslips in the presence of adhesamine (6 μM). They were fixed after 5 or 3 hours, respectively, with 4% paraformaldehyde for 20 minutes. The cell membrane was permeabilized by 5-min treatment with 0.1% Triton X-100 (in PBS). Samples were washed twice with PBS, and actin cytoskeleton was visualized with rhodamine-conjugated phalloidin according to the manufacturer's instructions (Invitrogen). The cell images were captured with a Yokogawa CSU22 confocal fluorescence microscope with 588-nm laser excitation.

The subject of assay [3] is Jurkat cells. Nature of the assay: Visualization of actin cytoskeleton with rhodamine-conjugated phalloidin, Jurkat. The format is cell-based, human. To be noted: 6 μM. Here is the method:
as §1, §2

The test system of assay [4] is HepG2 cells. Nature of the assay: Focal adhesion formation, anti-vinculin staining. It counts as cell-based. The settings on record: HepG2, immediately after seeding. Here is the method:
Trypsin-treated HepG2 cells were plated for 3 hours onto coverslips to which adhesamine was added; fixed thereon; and stained with anti-vinculin antibody and Alexa Fluor 488 goat anti-mouse IgG.
The cells were also stained with an antibody against vinculin, a marker of focal adhesion. […] These observations indicate that the adhesamine-induced contacts of the cells to the plates initiate a normal schedule of cell adhesion^(2,3).

For a further assay, the system named is CHO 745 cells. Nature of the assay: Cell adhesion assay, CHO 745. The settings on record: CHO 745, 6 μM, vs parental CHO-K1. It counts as cell-based. Here is the method:
(§3) (A) and (B) show CHO-K1 (wild-type) cells incubated with 1% (v/v) DMSO (A) or 6 μM adhesamine (B). (C) and (D) show CHO 677 incubated with 1% (v/v) DMSO (A) or 6 μM adhesamine (B). […] Cells were seeded onto adhesamine-added or fibronectin-coated plastic wells. The concentrations of adhesamine and fibronectin were 6 μM and 5 μg/mL, respectively. Adhered cells were counted at 5 hours after seeding. Each point represents average±SD.
(§4) For CHO wild-type and CHO mutant cell lines, 100 μL of trypsinized cell suspension in a culture medium was added to each well at a density of 2×10^5 cells/mL. After 5-hour incubation at 37° C., non-adhered cells were removed by washing each well with PBS twice, and the attached cells were counted with a Neubauer counting chamber (Digital Bio). To calculate adhesion rates, the cell numbers before washing were assigned a value of 100%. Each assay was conducted in triplicate, and the means and standard derivations were calculated for a minimum of three independent experiments.

A further assay has as its system CHO 677 cells. The assay can be described thus: Cell adhesion assay, CHO 677. To be noted: CHO 677, 6 μM, vs parental CHO-K1. It counts as cell-based. Here is the method:
as §3, §4

Another assay has as its system CHO F17 cells. The assay can be described thus: Cell adhesion assay, CHO F17. The format is cell-based. The settings on record: CHO F17, 6 μM. Here is the method:
as §3, §4

Assay [5] deals with Jurkat cells. Nature of the assay: Cell adhesion assay by coating. The format is cell-based, human. To be noted: 50 μg/well. The method, then: The surface area per well is 0.3 cm^2.
The assay samples (adhesamine (1), Type I collagen, poly-L-lysine hydrochloride, poly-L-ornithine hydrobromide, and fibronectin) were adjusted in concentration by being diluted with 10 mM PBS containing 1% DMSO. […] Thereafter, the wells were washed with Milli-Q water twice. 100 μL of Jurkat cell suspension (1×10^6 cells/mL) was added to each of coated wells. After 5-hour incubation at 37° C., non-adhered cells were removed by washing each well with PBS twice, and attached cells were counted with a Neubauer counting chamber (Digital Bio).

For `CSc1nc(Cl)c(C=O)c(N2CC[N+]3(CC2)CC[N+]2(CCN(c4nc(SC)nc(Cl)c4C=O)CC2)CC3)n1` [adhesamine], the “Jurkat cells released from the surface of a culture plate” value in the assay on Jurkat cells [1] amounted to 93%. Moreover, the figures for the “actin cytoskeleton structure in adhered cells” value in the assay with HepG2 cells [2] and in the assay with Jurkat cells [3] were “Actin filament bundles ran in parallel to the cell axis or through cell processes” and “well-organized cortical actin structure”, respectively. Moreover, the vinculin-containing focal adhesions result in the assay on HepG2 cells [4] is listed as “Vinculin-containing focal adhesions were observed”. For the same compound, the “response of cell adhesion to adhesamine” value in the assay with CHO 745 cells is given as “less responsive”; in the assay on CHO 677 cells it was “less responsive”; in the assay with CHO F17 cells, “responded”. Also, the “cell attachment when applied as coating, compared with coating reagents” value with Jurkat cells [5] is “greater effect than fibronectin, poly-L-lysine, and poly-L-ornithine”.
